For one data set, the target named is T1, β-catenin (Homo sapiens, UniProt P35222).
T1 sequence (P35222 1-781): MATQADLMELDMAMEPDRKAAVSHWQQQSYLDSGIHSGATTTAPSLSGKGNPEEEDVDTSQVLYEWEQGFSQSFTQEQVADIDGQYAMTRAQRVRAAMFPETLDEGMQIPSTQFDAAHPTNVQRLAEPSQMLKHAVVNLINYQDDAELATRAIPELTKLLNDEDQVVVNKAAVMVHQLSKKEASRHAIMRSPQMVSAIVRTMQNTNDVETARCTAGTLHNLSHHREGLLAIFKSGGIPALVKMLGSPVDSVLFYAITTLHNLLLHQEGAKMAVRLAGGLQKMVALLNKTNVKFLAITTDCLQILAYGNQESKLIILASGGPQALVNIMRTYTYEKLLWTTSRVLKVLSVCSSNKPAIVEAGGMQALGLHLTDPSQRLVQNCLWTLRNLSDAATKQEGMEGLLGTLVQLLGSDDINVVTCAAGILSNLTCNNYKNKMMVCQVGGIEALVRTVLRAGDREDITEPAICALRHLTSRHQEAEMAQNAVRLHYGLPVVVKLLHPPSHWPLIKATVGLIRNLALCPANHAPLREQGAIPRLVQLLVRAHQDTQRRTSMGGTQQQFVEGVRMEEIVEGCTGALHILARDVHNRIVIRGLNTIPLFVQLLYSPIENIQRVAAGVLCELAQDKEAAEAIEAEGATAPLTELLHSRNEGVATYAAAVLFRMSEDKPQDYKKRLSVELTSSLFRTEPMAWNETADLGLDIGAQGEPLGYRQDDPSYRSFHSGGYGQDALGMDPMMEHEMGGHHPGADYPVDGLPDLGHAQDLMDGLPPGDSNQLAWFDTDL
The data set is described as follows: KD50 measurement using competitive fluorescence polarization (FP) with labelled TCF4. Format: binding. The settings on record: fluorescence polarization, β-catenin; for Kd: read-out: β-Cat FP KD. An outline of the steps: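 First, β-catenin at 100 nM is mixed with 5 nM labelled TCF4 at room temperature. Next, compound is added across serial dilutions (10 nM to 30 uM). Finally, fluorescence polarization is measured (ex 470 nm, em 520 nm); experiments are done three times.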
In general terms: In fluorescence polarisation assays a small probe gives low polarisation when free and higher when bound to something large.

The conditions of data set [1]: % Viability non-Wnt responsive cells.
Data set [2] addresses Wnt-responsive promoter (TCF/LEF). The data set is described as follows: Wnt-dependent luciferase reporter assay. Format: cell-based, murine. The method in brief: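 Murine 3T3 fibroblasts carrying a TCF/LEF-driven luciferase reporter, stimulated with Wnt3a in the presence of increasing peptide concentrations or vehicle. Luminescence inhibition gave EC50 values in uM.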
(A reporter such as luciferase makes a cellular process visible.)

Where a SMILES comes first, the peptide text is derived from it. A value given as a limit tells only on which side of the number the result lay.

The term Kd denotes the free concentration of one partner at which half of the binding sites on the other are occupied at equilibrium, for simple one-to-one binding. Usually viability stands for a read-out of living cells in per cent, often relative to untreated cells. What is called EC50 is the concentration giving half of the maximal effect. Low values mean a more potent agent, high ones a less potent agent. In the case of `CC[C@H](C)[C@H](NC(=O)[C@H](CC(C)C)NC(=O)[C@H](Cc1ccccc1)NC(=O)[C@H](Cc1c[nH]c2ccccc12)NC(=O)[C@@H](NC(=O)[C@H](CCCNC(=N)N)NC(=O)[C@H](CO)NC(=O)[C@@H](N)CCSC)[C@@H](C)CC)C(=O)N[C@@H](CO)C(=O)N[C@@H](Cc1ccccc1)C(=O)N[C@@H](Cc1c[nH]c2ccccc12)C(=O)NCC(=O)O` [compound 55] (H-MSRIWFLISFWG-OH), the dissociation constant Kd at β-catenin is greater than 30 µM. Also, the viability in data set [1] worked out at 101%. The compound further had a concentration giving a half-maximal response (EC50) in data set [2] of less than 7.5 µM.

Take `CSCC[C@H](NC(=O)[C@H](CCCNC(=N)N)NC(=O)[C@H](CO)NC(=O)[C@@H](N)CCSC)C(=O)N[C@@H](Cc1c[nH]c2ccccc12)C(=O)N[C@@H](Cc1ccccc1)C(=O)N[C@@H](CC(C)C)C(=O)N[C@H](C(=O)N[C@@H](CO)C(=O)N[C@@H](Cc1ccccc1)C(=O)N[C@@H](Cc1c[nH]c2ccccc12)C(=O)NCC(=O)O)C(C)C` [compound 56] (H-MSRMWFLVSFWG-OH): on β-catenin, the Kd was greater than 30 µM. Also, in data set [1], the viability amounted to 100%. The compound also registered an EC50 in data set [2] of 7.5 to 15 µM.

For the compound `CC[C@H](C)[C@H](NC(=O)[C@H](CC(C)C)NC(=O)[C@H](Cc1ccccc1)NC(=O)[C@H](Cc1c[nH]c2ccccc12)NC(=O)[C@@H](N)CCSC)C(=O)N[C@@H](CO)C(=O)N[C@@H](Cc1ccccc1)C(=O)N[C@@H](Cc1c[nH]c2ccccc12)C(=O)O` [compound 112] (H-MWFLISFW-OH), at β-catenin, the “β-Cat FP Hill slope” value was 1.82 and the dissociation constant Kd fell in the range of 0.4 to 1 µM. In addition, in data set [1], the viability was determined as 103%. In data set [2], this compound registered an EC50 of less than 7.5 µM.

`CC[C@H](C)[C@H](NC(=O)[C@H](CC(C)C)NC(=O)[C@H](Cc1ccccc1)NC(=O)[C@H](Cc1c[nH]c2ccccc12)NC(=O)[C@H](CCSC)NC(=O)[C@H](CCCNC(=N)N)NC(=O)CNC(=O)[C@@H](N)CCSC)C(=O)N[C@@H](CO)C(=O)N[C@@H](Cc1ccccc1)C(=O)N[C@@H](Cc1c[nH]c2ccccc12)C(=O)NCC(=O)O` [compound 67] (H-MGRMWFLISFWG-OH): on β-catenin, the “β-Cat FP Hill slope” value was 0.99 and the dissociation constant Kd lay in the range of 1 to 10 µM. Further, in data set [1], the viability amounted to 101%. Besides, the EC50 in data set [2] is less than 7.5 µM.

In the case of `CC[C@H](C)[C@H](NC(=O)[C@H](CC(C)C)NC(=O)[C@H](Cc1ccccc1)NC(=O)[C@H](Cc1c[nH]c2ccccc12)NC(C)=O)C(=O)N[C@@H](CO)C(=O)N[C@@H](Cc1ccccc1)C(=O)N[C@@H](Cc1c[nH]c2ccccc12)C(=O)NCC(=O)O` [compound 220] (Ac-WFLISFWG-OH), at β-catenin, the “β-Cat FP Hill slope” value was 2.99 and the Kd was in the range of 0.4 to 1 µM. In addition, the viability in data set [1] is 93.2%. This compound came in with an EC50 in data set [2] of less than 7.5 µM.

As to `CC[C@H](C)[C@@H]1NC(=O)[C@H](CC(C)C)NC(=O)[C@H](Cc2ccccc2)NC(=O)[C@H](Cc2c[nH]c3ccccc23)NC(=O)[C@@H](N)CC(=O)NCCCC[C@@H](C(=O)NCC(=O)O)NC(=O)[C@H](Cc2c[nH]c3ccccc23)NC(=O)[C@H](C)NC(=O)[C@H](CS)NC1=O` [compound 178] (HELM PEPTIDE1{D.W.F.L.I.C.A.W.K.G}$PEPTIDE1,PEPTIDE1,1:R3-9:R3$$$V2.0), the Kd on β-catenin is greater than 30 µM. The viability in data set [1] was 91.8%. For the same compound, the EC50 in data set [2] was less than 7.5 µM.

With `CC[C@H](C)[C@H](NC(=O)[C@H](CC(C)C)NC(=O)[C@H](Cc1ccccc1)NC(=O)[C@H](Cc1c[nH]c2ccccc12)NC(=O)[C@H](Cc1ccccc1)NC(=O)[C@H](CCCNC(=N)N)NC(=O)[C@H](CO)NC(=O)[C@@H](N)CCSC)C(=O)N[C@@H](CO)C(=O)N[C@@H](Cc1ccccc1)C(=O)N[C@@H](Cc1c[nH]c2ccccc12)C(N)=O` [compound 77] (H-MSRFWFLISFW-NH2), the Kd at β-catenin is greater than 30 µM. Further, the viability in data set [1] turned out to be 107%. The same compound yielded an EC50 in data set [2] greater than 30 µM.

Consider `CC[C@H](C)[C@@H]1NC(=O)[C@H](CC(C)C)NC(=O)[C@H]([C@@H](C)CC)NC(=O)[C@H](Cc2c[nH]c3ccccc23)NC(=O)[C@H](CCSC)NC(=O)[C@@H](N)CCCCNC(=O)CNC(=O)[C@H](Cc2c[nH]c3ccccc23)NC(=O)[C@H](Cc2ccccc2)NC(=O)[C@H](CO)NC1=O` [compound 71] (HELM PEPTIDE1{K.M.W.I.L.I.S.F.W.G}$PEPTIDE1,PEPTIDE1,1:R3-10:R2$$$V2.0), for which the Kd at β-catenin was greater than 30 µM. Also, the viability in data set [1] is 93.7%. In addition, the EC50 in data set [2] was greater than 30 µM.

Take `CC[C@H](C)[C@H](NC(=O)[C@H](Cc1c[nH]c2ccccc12)NC(=O)[C@@H](N)CCSC)C(=O)N[C@@H](CC(C)C)C(=O)N[C@H](C(=O)N[C@@H](CO)C(=O)NC(C)(Cc1ccccc1)C(=O)N[C@@H](Cc1c[nH]c2ccccc12)C(=O)NCC(=O)O)[C@@H](C)CC` (stereo partly shown) [compound 128] (HELM PEPTIDE1{M.W.I.L.I.S.[CC(Cc1ccccc1)(N[*:1])C(=O)[*:2]].W.G}$$$$V2.0): at β-catenin, the “β-Cat FP Hill slope” value stood at 2.15 and the equilibrium dissociation constant (Kd) lay in the range of 0.4 to 1 µM. Besides, the viability in data set [1] came out at 132%. For the same compound, in data set [2], the EC50 is 7.5 to 15 µM.

For `CC[C@H](C)[C@H](NC(=O)[C@H](CC(C)C)NC(=O)[C@H](Cc1ccccc1)NC(=O)[C@H](Cc1c[nH]c2ccccc12)NC(=O)[C@@H](N)CCSC)C(=O)N[C@@H](Cc1c[nH]cn1)C(=O)N[C@@H](Cc1ccccc1)C(=O)N[C@@H](Cc1c[nH]c2ccccc12)C(=O)NCC(=O)O` [compound 163] (H-MWFLIHFWG-OH), at β-catenin, the Kd is greater than 30 µM. Moreover, in data set [1], the viability stood at 100%. In data set [2], this compound came in with a concentration for a half-maximal effect (EC50) of less than 7.5 µM.

For `CC[C@H](C)[C@H](NC(=O)[C@H](CC(C)C)NC(=O)[C@H](Cc1ccccc1)NC(=O)[C@H](Cc1c[nH]c2ccccc12)NC(=O)[C@H](CCSC)NC(C)=O)C(=O)N[C@@H](CO)C(=O)N[C@@H](Cc1ccccc1)C(=O)N[C@@H](Cc1c[nH]c2ccccc12)C(=O)NCC(=O)O` [compound 219] (Ac-MWFLISFWG-OH), at β-catenin, the “β-Cat FP Hill slope” value is on record as 0.86 and the equilibrium dissociation constant (Kd) is 0.4 to 1 µM. For the same compound, in data set [1], the viability was found to be 90.6%. In data set [2], this compound returned a 50% effective concentration (EC50) of less than 7.5 µM.

For the compound `CC[C@H](C)[C@H](NC(=O)[C@H](CC(C)C)NC(=O)[C@@H](NC(=O)[C@H](Cc1c[nH]c2ccccc12)NC(=O)[C@H](CCSC)NC(=O)[C@@H](N)Cc1c[nH]cn1)[C@@H](C)CC)C(=O)N[C@@H](CO)C(=O)N[C@@H](Cc1ccccc1)C(=O)N[C@@H](Cc1c[nH]c2ccccc12)C(=O)NCC(=O)O` [compound 123] (H-HMWILISFWG-OH), at β-catenin, the “β-Cat FP Hill slope” value amounted to 1.07 and the Kd was less than 0.4 µM. Moreover, in data set [1], the viability is 107%. In data set [2], this compound registered an EC50 of less than 7.5 µM.

Take `CC[C@H](C)[C@H](NC(=O)[C@H](CC(C)C)NC(=O)[C@@H](NC(=O)[C@H](Cc1c[nH]c2ccccc12)NC(=O)[C@H](CCSC)NC(=O)[C@@H](N)CCCCN)[C@@H](C)CC)C(=O)N[C@@H](CO)C(=O)N[C@@H](Cc1ccccc1)C(=O)N[C@@H](Cc1c[nH]c2ccccc12)C(=O)NCC(=O)O` [compound 122] (H-KMWILISFWG-OH): at β-catenin, the “β-Cat FP Hill slope” value is reported as 1.55 and the Kd was less than 0.4 µM. For the same compound, the viability in data set [1] was determined as 113%. This compound also registered an EC50 in data set [2] of 22.5 to 30 µM.

`CC[C@H](C)[C@H](NC(=O)[C@H](CC(C)C)NC(=O)[C@H](CC(C)C)NC(=O)[C@H](Cc1c[nH]c2ccccc12)NC(=O)[C@H](CCSC)NC(=O)[C@H](CCCNC(=N)N)NC(=O)[C@H](CO)NC(=O)[C@@H](N)CCSC)C(=O)N[C@@H](CO)C(=O)N[C@@H](Cc1ccccc1)C(=O)N[C@@H](Cc1c[nH]c2ccccc12)C(=O)NCC(=O)O` [compound 60] (H-MSRMWLLISFWG-OH): the Kd at β-catenin was greater than 30 µM. For the same compound, the viability in data set [1] came out at 101%. The compound further had an EC50 in data set [2] of 7.5 to 15 µM.

The values are drawn from patent US12441768B2, “Compositions and methods for treating endometriosis” (EndoMet Biosciences, Inc., priority 2018, dated 2025).
